# The source made the active and inactive calls. The rule behind the calls is not given here. Where a SMILES comes first, the peptide text is derived from it. Bridges are numbered along the chain shown (N, C = ends). [ ]: non-standard residue; d: D form. The star is where a group is joined. X1 = CC[C@H](C)CCCCC(=O)*; Dab = NCC[C@H](N)C(=O)O
# Assays:
# [1] = Stability in BALB/C mouse serum assessed as compound degradation time measured up to 1440 mins by HPLC analysis; assay type: ADME, cell-free; settings: 24 h
# [2] = test system: Klebsiella pneumoniae; test: Antibacterial activity against Klebsiella pneumoniae ATCC 700603 incubated with 0.2 to 0.02 ug/ml chymotrypsin for 6 hrs followed by bacterial addition and measured after 18 hrs by CLSI based broth dilution method; assay type: functional, organism-based; settings: dose 0.2-0.02 µg/ml, time 23.0 hrs
# [3] = test system: Staphylococcus aureus; test: Disruption of membrane integrity in Staphylococcus aureus ATCC 25923 assessed as membrane creeping at 1 times MIC incubated for 0.5 to 2 hrs by scanning electron microscopy; assay type: functional, organism-based; settings: time 0.5-2 hrs
# [4] = test system: Klebsiella pneumoniae; test: Disruption of membrane integrity in Klebsiella pneumoniae ATCC 700603 assessed as membrane blebbing at 1 times MIC incubated for 0.5 to 2 hrs by scanning electron microscopy; assay type: functional, organism-based; settings: time 0.5-2 hrs
# [5] = test system: Cell membrane; test: Disruption of membrane integrity in Klebsiella pneumoniae ATCC 700603 assessed as membrane shrinking at 1 times MIC measured within 0.5 to 2 hrs by scanning electron microscopy; assay type: subcellular; settings: Klebsiella pneumoniae 700603, time 0.5-2 hrs
# [6] = test system: Pseudomonas aeruginosa; test: Synergistic antibacterial activity against Pseudomonas aeruginosa ATCC 27853 at 2 times MIC incubated for 18 to 24 hrs in presence of 2 times MIC of polymyxin B by broth microdilution assay based checkerboard assay; assay type: functional; settings: time 18-24 hrs
# [7] = test system: Klebsiella pneumoniae; test: Synergistic antibacterial activity against Klebsiella pneumoniae ATCC 700603 at 2 times MIC incubated for 18 to 24 hrs in presence of 2 times MIC of polymyxin B by broth microdilution assay based checkerboard assay; assay type: functional; settings: time 18-24 hrs
# [8] = test system: Klebsiella pneumoniae; test: Antibacterial activity against Klebsiella pneumoniae ATCC 700603 infected in BALB/C mouse assessed as reduction in bacterial load in lung at 10 mg/kg, ip measured within 24 hrs by agar plate counting method (reference value: 2.77 x 10^7 CFU/mg); assay type: functional
# [9] = test system: Klebsiella pneumoniae; test: Antibacterial activity against Klebsiella pneumoniae ATCC 700603 infected in BALB/C mouse assessed as alveolar expansion at 5 mg/kg, ip by hematoxylin and eosin staining based assay; assay type: functional, organism-based
# [10] = Toxicity in BALB/C mouse assessed as mouse death at 15 to 25 mg/kg, ip measured after 24 hrs; assay type: organism-based; settings: in vivo, dose 15-25 mg/kg
# [11] = Induction of glomerulus hemorrhage in BALB/C mouse at 82 mg/kg, ip administered as single dose by hematoxylin and eosin staining based assay; assay type: organism-based; settings: in vivo
# [12] = Induction of renal interstitial cell hemorrhage in BALB/C mouse at 82 mg/kg, ip administered as single dose by hematoxylin and eosin staining based assay; assay type: organism-based; settings: in vivo
# [13] = test system: A549; test: Cytotoxicity against human A549 cells incubated for 12 hrs by MTT assay; assay type: cell-based; settings: A549, 12 h
# [14] = test system: Staphylococcus aureus; test: Antibacterial activity against Staphylococcus aureus ATCC 25923 incubated with 2000 ug/ml chymotrypsin for 6 hrs followed by bacterial addition and measured after 18 hrs by CLSI based broth dilution method; assay type: functional, organism-based; settings: dose 2000.0 µg/ml, time 23.0 hrs
# [15] = test system: Klebsiella pneumoniae; test: Antibacterial activity against Klebsiella pneumoniae ATCC 700603 incubated with 2000 ug/ml trypsin for 6 hrs followed by bacterial addition and measured after 18 hrs by CLSI based broth dilution method; assay type: functional, organism-based; settings: dose 2000.0 µg/ml, time 23.0 hrs
# [16] = test system: Cell membrane; test: Induction of outer membrane permeabilization in Klebsiella pneumoniae ATCC 700603 at 4MIC measured within 20 mins by N-phenylnaphthylamine dye based fluorescent method; assay type: subcellular; settings: Klebsiella pneumoniae 700603
# [17] = test system: Escherichia coli; test: Antibiofilm activity against Escherichia coli ATCC 25922 at 4 times MIC incubated for 24 hrs by crystal violet staining based assay; assay type: functional, organism-based
# [18] = test system: Klebsiella pneumoniae; test: Antibacterial activity against Klebsiella pneumoniae ATCC 700603 infected in BALB/C mouse assessed as reduction in alveolar shrinkage at 5 mg/kg, ip by hematoxylin and eosin staining based assay; assay type: functional, organism-based
# [19] = Toxicity in BALB/C mouse infected with Klebsiella pneumoniae ATCC 700603 assessed as change in liver color at 5 mg/kg, ip by hematoxylin and eosin staining based assay; assay type: organism-based; settings: in vivo
SMILES,Time [1] [min],Activity [2],Activity [3],Activity [4],Activity [5],FIC [6],FIC [7],Activity [8],Activity [9],Activity [10],Activity [11],Activity [12],IC50 [13] [µM],Activity [14],Activity [15],Activity [16],Activity [17],Activity [18],Activity [19]
NCCCC[C@H](NC(=O)[C@H](CCCCN)NC(=O)[C@H](Cc1c[nH]c2ccccc12)NC(=O)[C@H](CCCCN)NC(=O)[C@H](CCCCN)NC(=O)[C@H](Cc1c[nH]c2ccccc12)NC(=O)[C@H](Cc1c[nH]c2ccccc12)NC(=O)[C@@H](N)CCCCN)C(=O)N[C@@H](Cc1c[nH]c2ccccc12)C(=O)N[C@@H](Cc1c[nH]c2ccccc12)C(N)=O (H-KWWKKWKKWW-NH2),11.84,Active,Active,Active,Active,0.5625,0.3125,3.26 10^3CFU/mg,Active,Toxic,Toxic,Toxic,87.5,–,–,–,–,–,–
CC[C@H](C)CCCCC(=O)N[C@@H](CCN)C(=O)N[C@H](C(=O)N[C@@H](CCN)C(=O)N[C@H]1CCNC(=O)[C@H]([C@@H](C)O)NC(=O)[C@H](CCN)NC(=O)[C@H](CCN)NC(=O)[C@H](CC(C)C)NC(=O)[C@@H](Cc2ccccc2)NC(=O)[C@H](CCN)NC1=O)[C@@H](C)O (X1-[Dab]T[Dab][Dab][Dab][dF]L[Dab][Dab]T; lactam 4-C),–,–,–,–,–,–,–,–,–,–,–,–,–,Active,Active,Active,Active,inactive,Toxic

# From ChEMBL document CHEMBL4823282, “Novel Broad-Spectrum Antimicrobial Peptide Derived from Anoplin and Its Activity on Bacterial Pneumonia in Mice” (J Med Chem, 2021)
